What was measured:
[1] = tested on: breast cancer bone metastasis models; experiment: Osteolysis in breast cancer bone metastasis models; assay type: in vivo
[2] = tested on: rheumatoid arthritis model; experiment: Joint inflammation in a rheumatoid arthritis model; assay type: in vivo
ovariectomized rats = experiment: Bone loss in ovariectomized rats (FDA-approved model for testing osteoporosis treatments); assay type: in vivo
[3] = tested on: TGF-β signaling in human breast cancer cells; experiment: Inhibition of TGF-β signaling in human breast cancer cells; assay type: cell-based

Row | Compound | osteolysis [1] | joint inflammation [2] | bone loss (ovariectomized rats) | bone-resorbing osteoclasts (ovariectomized rats) | TGF-β signaling [3]
1 | COc1cc(/C=C/C(=O)CC(=O)/C=C/c2ccc(O)c(OC)c2)ccc1O [curcumin] | mitigate | prevent | prevent | decreasing | inhibit
2 | gingerols | – | prevent | – | – | –
3 | shogaols | – | prevent | – | – | –

From patent US20250041389A1, “ENHANCING ABSORPTION OF DIETARY COMPOUNDS TO PROMOTE HEALTH” (ARIZONA BOARD OF REGENTS ON BEHALF OF THE UNIVERSITY OF …, priority 2023, published 2025)
